# Source: the supplement of paper PMC4314810
# ± gives the standard deviation of the averaged measurements.
# Test system: MCF7
# Experiment: HRG-induced Akt activation (dPAkt = log2 pAkt/Akt HRG-stimulated minus log2 pAkt/Akt basal) (log2 ratio difference); higher = stronger HRG-induced Akt(T308) phosphorylation
# Details: miRNA mimic concentration 10 nM; time after transfection 72 h; heregulin 10 ng/ml; stimulation time 1 h
# In short: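 MCF7 cells were plated […] in 96-well plates and transfected in two biological replicates with a library of 879 miRNA mimics (10 nM final) using Lipofectamine RNAiMax; 72 h later they were stimulated for 1 h with 10 ng/ml heregulin-beta1 or left unstimulated. After fixation in 4% PFA, phospho-Akt(T308) and total Akt were measured by In-Cell Western on an Odyssey, with signals corrected for column-wise fixation decay. Heregulin-induced Akt activation is the stimulated minus unstimulated value of the log ratio of phospho-Akt to total Akt, averaged over replicates. That log ratio is log2(pAkt/Akt).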
row,Sequence,HRG-induced Akt activation (log2)
1,UUAUAAUACAACCUGAUAAGUG,1.04 ± 0.33
2,UGAGGUAGUAGAUUGUAUAGUU,1.22 ± 0.24
3,CCUAUUCUUGAUUACUUGUUUC,1.273 ± 0.0028
4,AGGGGGAAAGUUCUAUAGUCC,1.2 ± 0.07
5,UCCGAGCCUGGGUCUCCCUCUU,1.37 ± 0.23
6,AGCAGAAGCAGGGAGGUUCUCCCA,1.55 ± 0.054
7,AGGAGGCAGCGCUCUCAGGAC,1.54 ± 0.61
8,UGCCUACUGAGCUGAAACACAG,1.549 ± 0.007
9,CAUCCCUUGCAUGGUGGAGGG,1.97 ± 0.25
10,CAUCAUCGUCUCAAAUGAGUCU,1.91 ± 0.32
11,UACUUGGAAAGGCAUCAGUUG,1.28 ± 0.25
12,AGCUACAUCUGGCUACUGGGU,1.48 ± 0.25
13,CAGGCCAUAUUGUGCUGCCUCA,1.88 ± 0.66
14,GAACGGCUUCAUACAGGAGUU,1.67 ± 0.12
15,UCACAAGUCAGGCUCUUGGGAC,1.27 ± 0.15
16,CCUCCCACACCCAAGGCUUGCA,1.37 ± 0.3
17,UACCACAGGGUAGAACCACGG,1.43 ± 0.074
18,CGUGCCACCCUUUUCCCCAG,1.18 ± 0.34
19,UCUUUGGUUAUCUAGCUGUAUGA,1.96 ± 0.15
20,AAUCCUUGGAACCUAGGUGUGAGU,2.15 ± 0.11
21,UUUCCAUAGGUGAUGAGUCAC,1.09 ± 0.68
22,GAAGGCGCUUCCCUUUGGAGU,1.41 ± 0.095
23,UAUUGCACUCGUCCCGGCCUCC,1.33 ± 0.043
24,UCCAGCAUCAGUGAUUUUGUUG,1.77 ± 0.17

row,Sequence,HRG-induced Akt activation (log2)
1,AUUUGUGCUUGGCUCUGUCAC,0.917 ± 0.31
2,AGAAUUGUGGCUGGACAUCUGU,1.55 ± 0.022
3,UCCUGCGCGUCCCAGAUGCCC,1.15 ± 0.34
4,AUCGUGCAUCCCUUUAGAGUGU,1.54 ± 0.1
5,AAUAUAACACAGAUGGCCUGU,1.36 ± 0.25
6,AUCCCACCUCUGCCACCA,1.2 ± 0.059
7,GAUUAGGGUGCUUAGCUGUUAA,1.67 ± 0.28
8,CAAAGUGCUCAUAGUGCAGGUAG,1.34 ± 0.39
9,AGCCUGAUUAAACACAUGCUCUGA,1.23 ± 0.11
10,UCGUGCAUCCCUUUAGAGUGUU,1.6 ± 0.022
11,ACAGUCUGCUGAGGUUGGAGC,1.54 ± 0.044
12,ACGGUGCUGGAUGUGGCCUUU,1.92 ± 0.082
13,GCUAUUUCACGACACCAGGGUU,1.693 ± 0.0017
14,UCUAGUAAGAGUGGCAGUCGA,1.322 ± 0.0056
15,UGGUGCGGAGAGGGCCCACAGUG,0.984 ± 0.11
16,ACCAGGAGGCUGAGGCCCCU,1.68 ± 0.1
17,AGAAGGAAAUUGAAUUCAUUUA,2.39 ± 0.29
18,AGGUGGUCCGUGGCGCGUUCGC,2.93 ± 0.32
19,CUGGGAGGUGGAUGUUUACUUC,0.961 ± 0.055
20,AAAAGUAAUCGCGGUUUUUGUC,1.2 ± 0.063
21,AAGUGCCGCCAUCUUUUGAGUGU,0.888 ± 0.34
22,UCCCUGUCCUCCAGGAGCUCACG,1.79 ± 0.13
23,GGGCGACAAAGCAAGACUCUUUCUU,1.56 ± 0.061
24,UUGCAUAGUCACAAAAGUGAUC,1.36 ± 0.096

row,Sequence,HRG-induced Akt activation (log2)
1,AGUUUUGCAGGUUUGCAUUUCA,1.13 ± 0.15
2,UAAGUGCUUCCAUGUUUUGGUGA,0.743 ± 0.38
3,CUGUUGCCACUAACCUCAACCU,1.07 ± 0.11
4,CGUCAACACUUGCUGGUUUCCU,2.32 ± 0.12
5,AGAGGUAUAGGGCAUGGGAA,1.88 ± 0.23
6,UACAGUAUAGAUGAUGUACU,1.39 ± 0.57
7,AUCACACAAAGGCAACUUUUGU,1.78 ± 0.33
8,AUCGCUGCGGUUGCGAGCGCUGU,1.63 ± 0.063
9,GUGGGCGGGGGCAGGUGUGUG,1.13 ± 0.44
10,AAUCCUUUGUCCCUGGGUGAGA,1.76 ± 0.094
11,CAGUAACAAAGAUUCAUCCUUGU,2.1 ± 0.17
12,AUGGAUAAGGCUUUGGCUU,1.72 ± 0.027
13,UAGGUAGUUUCCUGUUGUUGGG,2.19 ± 0.23
14,AAUCAUACAGGGACAUCCAGUU,1.86 ± 0.16
15,CCAUGGAUCUCCAGGUGGGU,1.47 ± 0.17
16,CAAAAAUCUCAAUUACUUUUGC,2.04 ± 0.028
17,UCGUGGCCUGGUCUCCAUUAU,1.03 ± 0.11
18,UAGCAAAAACUGCAGUUACUUU,1.86 ± 0.15
19,CAGGGAGGUGAAUGUGAU,1.71 ± 0.099
20,UGGCCCUGACUGAAGACCAGCAGU,1.11 ± 0.22
21,UCACAGUGAACCGGUCUCUUU,1.04 ± 0.063
22,UGAGUACCGCCAUGUCUGUUGGG,1.98 ± 0.09
